One compound from ChEMBL document CHEMBL5226310, “Synthesis and Characterization of Novel Mono- and Bis-Guanyl Hydrazones as Potent and Selective ASIC1 Inhibitors Able to Reduce Brain Ischemic Insult” (J Med Chem, 2021) can be followed below.

Activity calls are given as the source filed them. The calls are words filed in the database; no cut-off is given here.

Test [1] has as its target T1, Acid-sensing ion channel 1 (Homo sapiens, UniProt P78348).
T1 sequence (P78348 whole entry): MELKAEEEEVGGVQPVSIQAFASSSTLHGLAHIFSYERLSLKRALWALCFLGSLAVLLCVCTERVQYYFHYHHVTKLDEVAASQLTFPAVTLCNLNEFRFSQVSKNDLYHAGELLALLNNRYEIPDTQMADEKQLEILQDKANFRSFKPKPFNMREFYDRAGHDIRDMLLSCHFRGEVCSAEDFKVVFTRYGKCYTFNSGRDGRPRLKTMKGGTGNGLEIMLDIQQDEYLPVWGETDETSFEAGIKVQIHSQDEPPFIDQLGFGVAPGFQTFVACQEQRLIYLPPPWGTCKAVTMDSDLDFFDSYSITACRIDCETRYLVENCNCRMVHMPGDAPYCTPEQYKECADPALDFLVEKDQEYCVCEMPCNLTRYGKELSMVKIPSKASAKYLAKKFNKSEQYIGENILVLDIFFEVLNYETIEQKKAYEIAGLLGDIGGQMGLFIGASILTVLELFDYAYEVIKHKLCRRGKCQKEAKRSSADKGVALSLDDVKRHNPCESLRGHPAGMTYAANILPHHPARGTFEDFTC
The test is described as follows: Inhibition of human ASIC1a in HEK293 cells assessed as inward proton-gated current at pH 6.0 incubated with compound followed by PcTx1 addition by patch-clamp electrophysiology. The format is cell-based. Background: The patch-clamp technique gives a direct electrical read-out from membranes.

The target of test [2] is T2, Acid-sensing ion channel 1 (Mus musculus) (UniProt Q6NXK8).
T2 sequence (whole entry): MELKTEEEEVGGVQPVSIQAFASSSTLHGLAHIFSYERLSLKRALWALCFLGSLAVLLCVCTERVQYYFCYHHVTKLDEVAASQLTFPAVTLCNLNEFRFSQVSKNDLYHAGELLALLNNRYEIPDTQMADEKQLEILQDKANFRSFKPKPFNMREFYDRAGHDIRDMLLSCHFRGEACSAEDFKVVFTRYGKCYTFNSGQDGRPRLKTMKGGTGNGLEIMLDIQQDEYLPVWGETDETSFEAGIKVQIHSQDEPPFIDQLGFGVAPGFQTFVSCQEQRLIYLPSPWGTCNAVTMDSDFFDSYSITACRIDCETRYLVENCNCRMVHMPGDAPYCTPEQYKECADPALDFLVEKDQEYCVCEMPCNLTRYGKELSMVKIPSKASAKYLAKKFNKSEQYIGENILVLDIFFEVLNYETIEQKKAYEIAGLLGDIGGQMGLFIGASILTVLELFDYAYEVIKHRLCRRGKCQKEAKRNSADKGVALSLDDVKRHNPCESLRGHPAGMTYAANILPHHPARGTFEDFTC
The test is described as follows: Inhibition of mouse ASIC1a expressed in genetically engineered-CHO-K1 cells at 10 uM preincubated for 10 mins at pH 7.4 followed by cell stimulation with proton injection at pH 6.5 by electro-chromic fluorescence voltage sensor-based assay relative to control.

Test [3] has as its target T3, Acid-sensing ion channel 2 (Mus musculus) (UniProt Q925H0).
T3 sequence (whole entry): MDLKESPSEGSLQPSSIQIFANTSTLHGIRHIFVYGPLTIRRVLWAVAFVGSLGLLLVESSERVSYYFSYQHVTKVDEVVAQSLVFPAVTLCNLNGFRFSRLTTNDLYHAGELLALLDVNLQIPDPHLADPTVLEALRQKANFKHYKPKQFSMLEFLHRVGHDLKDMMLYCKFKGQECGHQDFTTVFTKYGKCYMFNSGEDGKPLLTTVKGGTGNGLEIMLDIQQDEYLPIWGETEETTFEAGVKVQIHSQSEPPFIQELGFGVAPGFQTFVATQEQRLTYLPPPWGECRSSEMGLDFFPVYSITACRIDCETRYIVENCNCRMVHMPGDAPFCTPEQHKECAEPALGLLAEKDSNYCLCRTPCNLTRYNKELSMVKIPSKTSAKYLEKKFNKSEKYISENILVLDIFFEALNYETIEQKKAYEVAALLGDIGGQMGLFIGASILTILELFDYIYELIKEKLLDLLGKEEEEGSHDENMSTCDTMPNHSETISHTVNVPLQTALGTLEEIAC
The test is described as follows: Inhibition of mouse ASIC2a expressed in genetically engineered-CHO-K1 cells at 10 uM preincubated for 10 mins at pH 7.4 followed by cell stimulation with proton injection at pH 6.5 by electro-chromic fluorescence voltage sensor-based assay relative to control.

Test [4] has as its target T4, Acid-sensing ion channel 1 (Homo sapiens) (UniProt P78348).
T4 sequence (whole entry): T1 sequence (P78348 whole entry)
The test is described as follows: Inhibition of ASIC1a in acid stimulated-human Neural Progenitor Cells assessed as reduction in current amplitude at pH 6.5 at 10 uM measured for 5 mins with acid stimulation for every 2 mins by electrophysiology relative to control. The format is cell-based. To be noted: Neural Progenitor Cell.

For test [5], the target named is T4, Acid-sensing ion channel 1 (Homo sapiens). The test is described as follows: Inhibition of ASIC1a in acid stimulated-human Neural Progenitor Cells assessed as reduction in current amplitude at pH 6.5 at 10 uM measured for 5 mins with acid stimulation for every 2 mins by electrophysiology (reference value: 92.41 +/- 33.66 pA). The format is cell-based. To be noted: Neural Progenitor Cell.

In test [6] the test system is Cortical neurone. The test is described as follows: Neuroprotective activity in OGD/Rx-induced E16 Wistar rat Primary cortical neurons assessed as increase in cell viability at 0.4 uM incubated for 3 hrs during OGD followed by reoxygenation with compound re-addition measured after 21 hrs by MTT assay. The following applies: time 24.0 hrs. Type of test: functional, cell-based.

Test [7] concerns Cortical neurone. The test can be described thus: Neuroprotective activity in OGD/Rx-induced E16 Wistar rat Primary cortical neurons assessed as increase in cell viability at 0.4 uM incubated for 3 hrs during OGD followed by compound removal and reoxygenation measured after 21 hrs by MTT assay. The format is functional, cell-based. (In general: Formazan colour is commonly taken as a measure of viable cells.)

Test [8] deals with Cortical neurone. The test is described as follows: Neuroprotective activity in OGD/Rx-induced E16 Wistar rat Primary cortical neurons assessed as increase in cell viability incubated for 3 hrs during OGD followed by reoxygenation with compound re-addition measured after 21 hrs by MTT assay. Type of test: functional, cell-based. To be noted: time 24.0 hrs.
The test system of test [9] is Mus musculus. The test is described as follows: Neuroprotective activity in mouse model of middle cerebral artery occlusion-induced transient brain ischemia assessed as decrease in ischemic volume at 0.65 mg/kg, ip administered thrice measured after 24 hrs (reference value: 58 +/- 2.6 %). Type of test: functional. Also on record: scale not given: the % may be the effect or the level left.

Test [10] concerns Mus musculus. The test can be described thus: Neuroprotective activity in mouse model of middle cerebral artery occlusion-induced transient brain ischemia assessed as reduction in general neurological deficits at 0.65 mg/kg, ip administered thrice measured after 24 hrs. Type of test: functional, organism-based.
In test [11] the test system is Mus musculus. The test is described as follows: Neuroprotective activity in mouse model of middle cerebral artery occlusion-induced transient brain ischemia assessed as reduction in focal neurological deficits at 0.65 mg/kg, ip administered thrice measured after 24 hrs. Type of test: functional, organism-based.
For test [12], the system named is Mus musculus. The test is described as follows: Neuroprotective activity in mouse model of middle cerebral artery occlusion-induced transient brain ischemia assessed as ischemic volume at 6.5 mg/kg, ip administered thrice measured after 24 hrs relative to control. The format is functional.
Test [13] relates to Mus musculus. The test can be described thus: Neuroprotective activity in mouse model of middle cerebral artery occlusion-induced transient brain ischemia assessed as ischemic volume at 0.65 mg/kg, ip administered thrice measured after 24 hrs relative to control. The format is functional.
Test [14] concerns Mus musculus. The test can be described thus: Neuroprotective activity in mouse model of middle cerebral artery occlusion-induced transient brain ischemia assessed as reduction in ischemic volume at 0.65 mg/kg, ip administered thrice measured upto 72 hrs relative to control. The format is functional. The arrangement: scale not given: the % may be the effect or the level left.

Test [15] deals with Mus musculus. The test is described as follows: Neuroprotective activity in mouse model of middle cerebral artery occlusion-induced transient brain ischemia assessed as reduction in general neurological deficits at 0.65 mg/kg, ip administered thrice measured upto 72 hrs. The format is functional, organism-based.
Test [16] relates to Mus musculus. The test is described as follows: Neuroprotective activity in mouse model of middle cerebral artery occlusion-induced transient brain ischemia assessed as reduction in focal neurological deficits at 0.65 mg/kg, ip administered thrice measured upto 72 hrs. The format is functional, organism-based.

As to `Cl.N=C(N)N/N=C\c1ccc(-c2cccc(-c3ccc(/C=N/NC(=N)N)cc3)c2)cc1`, in [1], the IC50 (as a rule, the concentration at which inhibition is half-maximal) came to 407 nM. Further, the results for the inhibition in [2], in test [3] and in test [4] were 53%, 35.4% and 70%, respectively. Moreover, the Activity in [5] was 9.37 pA; with Cortical neurone [8], “Dose-Dependent Effect”; in the test with Mus musculus [9], 34.7%; with Mus musculus [12], 50.1%; in the test with Mus musculus [13], 47.1%; in the test with Mus musculus [14] it was 35.3%. Also, the outcome in the test on Cortical neurone [6], in the test on Cortical neurone [7], in the test on Mus musculus [10], in the test on Mus musculus [11], with Mus musculus [15] and with Mus musculus [16] was Active.
